Results reported in patent US20120157448A1, “COMPOUNDS FOR TREATING NEURODEGENERATIVE DISEASES” (priority 2010, published 2012).

Target: T1, BACE-1 (Homo sapiens, UniProt P56817)
T1 construct: endogenous in cells; host or cells: HEK-293 cells stably transfected with wild type APP695
Test: Cellular BACE-1 inhibition assay (in vitro cellular Amyloidβ 1-40 production, HTRF immunoassay)
Type: cell-based
Conditions: inhibition of Amyloidβ 1-40 production; HEK-293 cells stably transfected with wild type APP695; 48 hours incubation; average where tested more than once; read-out: IC50
Experimental: Materials and Methods: HEK-293 cells stably transfected with a DNA construct containing the coding sequence for the wild type APP695 sequence were grown in Dulbecco's Modified Eagle Medium (“DMEM”) supplemented with 10% fetal bovine serum, penicillin/streptomycin and 150 μg/mL G418. Cells were plated in 96-well plates at 35,000 cells/well and allowed to attach for 8-12 hours. Media was changed to DMEM supplemented with 10% fetal bovine serum, penicillin/streptomycin 15 minutes prior to compound addition. Diluted compounds were then added at a final concentration of 0.5% DMSO. After 48 hours, 4 μL of media from each well was added to a corresponding well of a 384 well plate (Perkin Elmer Cat#6008280) containing the HTRF reagents. HTRF reagents were obtained from the CisBio Amyloid β 1-40 peptide assay kit (Cat#62B40PEC) and were prepared as follows anti-peptide β (1-40)-Cryptate and anti-peptide […] were stored in 2 plate aliquots at −80° C. Diluent and Reconstitution buffer were stored at 4° C. Aliquots of the two antibodies were diluted 1:100 with Reconstitution buffer, and this mixture was diluted 1:2 with Diluent. 12 μL of the reagent mixture was added to the required wells of the 384 well assay plate. The assay plate was incubated at 4° C. for 17 hours and then analyzed for fluorescence at 665 and 620 nm. The following compounds were tested in the above assay. Some compounds were tested more than once, and the average is reported below.

T1 sequence (P56817 46-501): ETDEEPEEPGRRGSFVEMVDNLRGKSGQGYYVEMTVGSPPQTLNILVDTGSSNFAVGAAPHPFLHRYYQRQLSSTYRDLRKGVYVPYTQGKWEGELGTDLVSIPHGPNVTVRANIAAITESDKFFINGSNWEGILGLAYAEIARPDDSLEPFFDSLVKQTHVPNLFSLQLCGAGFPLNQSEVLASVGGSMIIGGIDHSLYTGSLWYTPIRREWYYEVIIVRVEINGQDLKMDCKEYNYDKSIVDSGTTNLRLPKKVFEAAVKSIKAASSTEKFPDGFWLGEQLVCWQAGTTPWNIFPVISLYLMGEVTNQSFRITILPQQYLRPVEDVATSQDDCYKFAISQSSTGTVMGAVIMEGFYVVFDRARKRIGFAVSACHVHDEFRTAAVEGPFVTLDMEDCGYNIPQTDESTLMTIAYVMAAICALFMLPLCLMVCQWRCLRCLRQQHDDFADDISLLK

In the case of `NC1=NC2(CO1)c1cc(-c3cncc(Cl)c3)ccc1OC1CCCCC12` (racemic) [Example 9, 7′-(5-chloropyridin-3-yl)-1′,2′,3′,4′,4a′,9a′-hexahydro-5H-spiro[oxazole-4,9′-xanthen]-2-amine], the IC50 is reported as 43.4 nM.

In the case of `NC1=NC2(CO1)c1cc(-c3cncnc3)ccc1OC1CCCCC12` (single isomer, unassigned) [Example 12, 7′-(pyrimidin-5-yl)-1′,2′,3′,4′,4a′,9a′-hexahydro-5H-spiro[oxazole-4,9′-xanthen]-2-amine], the IC50 is reported as 60.7 nM.

Work on `NC1=NC2(CO1)c1cc(NC(=O)c3ccc(Br)cn3)ccc1OC1CCCCC12` (racemic) [Example 17, N-(2-amino-1′,2′,3′,4′,4a′,9a′-hexahydro-5H-spiro[oxazole-4,9′-xanthene]-7′-yl)-5-bromopicolinamide] yielded an IC50 of 147 nM.

`CCO[C@H]1CC[C@@H]2Oc3ccc(-c4cc(F)cc(C#N)c4)cc3C3(COC(N)=N3)[C@H]2C1` (stereo partly drawn) [Example 159, 3-((2′S,4a′S,9a′R)-2-amino-2′-ethoxy-1′,2′,3′,4′,4a′,9a′-hexahydro-5H-spiro[oxazole-4,9′-xanthen]-7′-yl)-5-fluorobenzonitrile] showed an IC50 of 76.1 nM.

`NC1=N[C@@]2(CS1)c1cc(-c3cncnc3)ccc1O[C@H]1CC[C@H](O)C[C@@H]12` [Example 146, (2′S,4R,4a′S,9a′R)-2-amino-7′-(pyrimidin-5-yl)-1′,2′,3′,4′,4a′,9a′-hexahydro-5H-spiro[thiazole-4,9′-xanthen]-2′-ol] gave an IC50 of 192 nM.

`Cc1nc(C(=O)Nc2ccc3c(c2)C2(COC(N)=N2)C2CCCCC2O3)co1` (single isomer, unassigned) [Example 14, N-(2-amino-1′,2′,3′,4′,4a′,9a′-hexahydro-5H-spiro[oxazole-4,9′-xanthene]-7′-yl)-2-methyloxazole-4-carboxamide] gave an IC50 of 73.5 nM.

With `NC1=NC2(CO1)c1cc(NC(=O)c3ccc(Cl)cn3)ccc1OC1CCCCC12` (single isomer, unassigned) [Example 16, N-(2-amino-1′,2′,3′,4′,4a′,9a′-hexahydro-5H-spiro[oxazole-4,9′-xanthene]-7′-yl)-5-chloropicolinamide] the IC50 was 171 nM.

In the case of `NC1=NC2(CS1)c1cc(-c3cncc(Cl)c3)ccc1OC1CC(O)CC[C@@H]12` (single isomer, unassigned) [Example 25, (4a′S*,9aR*)-2-amino-7′-(5-chloropyridin-3-yl)-1′,2′,3′,4′,4a′,9a′-hexahydro-5H-spiro[thiazole-4,9′-xanthen]-3′-ol], the IC50 is reported as 24.1 nM.

Work on `NC1=NC2(CO1)c1cc(-c3cccnc3F)ccc1OC1CCN(CC(F)(F)F)C[C@@H]12` (mixture of isomers) [Example 44, rac-trans-(4a,10a)-8-(2-fluoropyridin-3-yl)-2-(2,2,2-trifluoroethyl)-1,2,3,4,4a,10a-hexahydro-5′H-spiro[chromeno[3,2-c]pyridine-10,4′-oxazol]-2′-amine] yielded an IC50 of 304 nM.

In the case of `NC1=N[C@]2(CO1)c1cc(-c3cncc(Cl)c3)ccc1OC1CC[C@H](OCC3CC3)C[C@@H]12` (relative stereo) [Example 29, (4S*,4a′S*,9a′R*)-7′-(5-chloropyridin-3-yl)-2′-(cyclopropylmethoxy)-1′,2′,3′,4′,4a′,9a′-hexahydro-5H-spiro[oxazole-4,9′-xanthen]-2-amine], the IC50 is reported as 8.9 nM.

`CN1C(=O)CC2(N=C1N)c1cc(-c3cc(F)cc(Cl)c3)ccc1OC1CC3(CCC12)OCCO3` (stereo not shown) [Example 3, 2″-amino-7′-(3-chloro-5-fluorophenyl)-1″-methyl-2′,4′,4′a,5″,6″,9′a-hexahydro-1′H,1″H-dispiro[1,3-dioxolane-2,3′-xanthene-9′,4″-pyrimidine]-6″-one] gave an IC50 of 3080 nM.

`CC(C)O[C@H]1CCC2Oc3ccc(-c4cccnc4F)cc3C3(COC(N)=N3)[C@H]2C1` (stereo partly drawn) [Example 155, (2′S,4a′S,9aR)-7′-(2-fluoropyridin-3-yl)-2′-isopropoxy-1′,2′,3′,4′,4a′,9a′-hexahydro-5H-spiro[oxazole-4,9′-xanthen]-2-amine] showed an IC50 of 71.4 nM.

With `NC1=NC2(CO1)c1cc(-c3cncnc3)ccc1OC1CCC(O)C[C@@H]12` (stereo in doubt) [Example 32, (4a′S*,9a′R*)-2-amino-7′-(pyrimidin-5-yl)-1′,2′,3′,4′,4a′,9a′-hexahydro-5H-spiro[oxazole-4,9′-xanthen]-2′-ol] the IC50 was 118 nM.

With `CN1C(=O)CC2(N=C1N)c1cc(-c3cc(F)cc(Cl)c3)ccc1OC1CC(=O)CCC12` (stereo not shown) [Example 4, 2-amino-7′-(3-chloro-5-fluorophenyl)-1-methyl-1′,4′,4a′,9a′-tetrahydro-1H-spiro[pyrimidine-4,9′-xanthene]-3′,6(2′H,5H)-dione] the IC50 was 1190 nM.

`NC1=NC2(CO1)c1cc(-c3cccnc3F)ccc1OC1CCC3(CCO3)C[C@@H]12` (stereo partly shown) [Example 199] showed an IC50 of 630 nM.

`NC1=N[C@@]2(CO1)c1cc(-c3cncc(Cl)c3)ccc1OC1CC[C@H](OCC3CC3)C[C@@H]12` (relative stereo) [Example 28, (4R*,4a′S*,9a′R*)-7′-(5-chloropyridin-3-yl)-2′-(cyclopropylmethoxy)-1′,2′,3′,4′,4a′,9a′-hexahydro-5H-spiro[oxazole-4,9′-xanthen]-2-amine] showed an IC50 of 7.8 nM.

Work on `CCOCC1CCC2Oc3ccc(-c4cncc(Cl)c4)cc3C3(COC(N)=N3)[C@H]2O1` (stereo in doubt) [Example 98, (4a′S*,10a′R*)-8′45-chloropyridin-3-yl)-2′-(ethoxymethyl)-3′,4′,4a′,10a′-tetrahydro-2H,5H-spiro[oxazole-4,10′-pyrano[3,2-b]chromen]-2-amine] yielded an IC50 of 421 nM.

Compound `C[C@@]12CCO[C@@H]1[C@@]1(COC(N)=N1)c1cc(-c3cc(F)cc(Cl)c3)ccc1O2` [Example 266, (3aR,4′S,9aR)-7-(3-chloro-5-fluorophenyl)-3a-methyl-2,3,3a,9a-tetrahydro-5′H-spiro[furo[3,2-b]chromene-9,4′-oxazol]-2′-amine] has an IC50 of 5290 nM.

In the case of `C[C@H]1OCCC2Oc3ccc(-c4cncc(Cl)c4)cc3[C@@]3(COC(N)=N3)[C@@H]21` (relative stereo) [Example 90, (1′R*4R*,4a′R*,10a′R*)-8′-(5-chloropyridin-3-yl)-1′-methyl-3′,4′,4a′,10a′-tetrahydro-1′H,5H-spiro[oxazole-4,10′-pyrano[4,3-b]chromen]-2-amine], the IC50 is reported as 1340 nM.

With `NC1=NC2(CO1)c1cc(-c3cccnc3F)ccc1OC1CCNC[C@@H]12` (mixture of isomers) [Example 41, rac-trans-(4a,10a)-8-(2-fluoropyridin-3-yl)-1,2,3,4,4a,10a-hexahydro-5′H-spiro[chromeno[3,2-c]pyridine-10,4′-oxazol]-2′-amine] the IC50 was 1330 nM.

`NC1=NC2(CO1)c1cc(-c3cccnc3F)ccc1OC1CCC(O)C[C@@H]12` (stereo in doubt) [Example 31, (4a′S*,9a′R*)-2-amino-7′-(2-fluoropyridin-3-yl)-1′,2′,3′,4′,4a′,9a′-hexahydro-5H-spiro[oxazole-4,9′-xanthen]-2′-ol] gave an IC50 of 47.3 nM.

`C[C@]12CCCO[C@@H]1[C@]1(COC(N)=N1)c1cc(-c3cncc(F)c3)ccc1O2` (relative stereo) [Example 88, (4R*,4a′S*,10a′R*)-8′-(5-fluoropyridin-3-yl)-4a′-methyl-3′,4′,4a′,10a′-tetrahydro-2′H,5H-spiro[oxazole-4,10′-pyrano[3,2-b]chromen]-2-amine] was tested, and the IC50 was 154 nM.

Compound `NC1=NC2(CS1)c1cc(-c3cncnc3)ccc1OC1CCC(O)C[C@@H]12` (stereo in doubt) [Example 34, (4a′S*,9aR*)-2-amino-7′-(pyrimidin-5-yl)-1′,2′,3′,4′,4a′,9a′-hexahydro-5,4-spiro[thiazole-4,9′-xanthen]-2′-ol] has an IC50 of 90.2 nM.

`CC(C)CS(=O)(=O)N1CC[C@@H]2Oc3ccc(-c4cccnc4F)cc3[C@]3(COC(N)=N3)[C@H]2C1` (single isomer, unassigned) [Example 120] showed an IC50 of 41 nM.

Compound `NC1=NC2(CO1)c1cc(-c3cccnc3F)ccc1OC1CCN(C(=O)OCc3ccccc3)C[C@@H]12` (mixture of isomers) [Example 5, rac-trans-(4a,10a)-benzyl 2′-amino-8-(2-fluoropyridin-3-yl)-1,4,4a,10a-tetrahydro-5′H-spiro[chromeno[3,2-c]pyridine-10,4′-oxazole]-2(3H)-carboxylate] has an IC50 of 133 nM.

Work on `NC1=NC2(CO1)c1cc(-c3cncnc3)ccc1OC1CCCCC12` (single isomer, unassigned) [Example 11, 7′-(pyrimidin-5-yl)-1′,2′,3′,4′,4a′,9a′-hexahydro-5H-spiro[oxazole-4,9′-xanthen]-2-amine] yielded an IC50 of 69.5 nM.

`NC1=NC2(CO1)c1cc(-c3cncc(Cl)c3)ccc1OC1CCC(F)CC12` (stereo not shown) [Example 27, 7′-(5-chloropyridin-3-yl)-2′-fluoro-1′,2′,3′,4′,4a′,9a′-hexahydro-5H-spiro[oxazole-4,9′-xanthen]-2-amine] was tested, and the IC50 was 64.2 nM.

`NC1=N[C@@]2(CO1)c1cc(-c3cncnc3)ccc1O[C@H]1CC[C@H](OCC3CC3)C[C@@H]12` [Example 150, (2′S,4R,4a′S,9a′R)-2′-(cyclopropylmethoxy)-7′-(pyrimidin-5-yl)-1′,2′,3′,4′,4a′,9a′-hexahydro-5H-spiro[oxazole-4,9′-xanthen]-2-amine] was tested, and the IC50 was 100 nM.
